Laboratory results taken from patent US20240325429A1, “MINOR SPLICEOSOME TARGETING COMPOSITIONS AND THEIR USE IN CANCER TREATMENT” (UNIVERSITÄT BERN, priority 2021, published 2024).

Experiments:
Assay type in all cases: cell-based, human
minor spliceosome (MiS) = test: Luciferase minor intron splicing reporter assay
Experimental: (§1) CMV-luc2CP/ARE (major intron splicing reporter), CMV-luc2CP (empty vector backbone control) and luc1CFH4 (minor splicing intron reporter) were a kind gift from Dr. Gideon Dreyfuss (University of Pennsylvania). DNA was amplified via chemical transformation of One Shot Mach1 T1 Phage-Resistant Chemically Competent E. coli cells (Invitrogen, C862003) and Sanger sequenced.
(§2) 24 hours prior analysis cells of each condition were co-transfected with each reporter plasmid and the empty vector backbone plasmid. In short 1.5 ul of P3000 reagent plus 0.5 ug of DNA and 1.5 ul Lipofectamine P300 were each diluted in 25 ul Opti-MEMH medium. Both mixes were pooled and incubated for 20 minutes before the solution was added to the cells. Luciferase expression was measured with the Dual-Glo® Luciferase Assay System (Promega, E2940): media was removed, 100 ul of PLB were added and cells were frozen for two hours at −20 C. After a one hour shaking step 100 ul of LAR substrate was added and Firefly luciferase expression was measured with a Tecan Infinite M200PRO reader. Values were calculated as x-fold of CMV-luc2CP expression and subsequently as the x-fold of the respective reference control.

major spliceosome = test: Luciferase major intron splicing reporter assay; details: LNCaP and C4-2 cells, long term ADT/ARSi
Experimental: as §1
as §2, with “To determine the minor/major intron splicing rate cells were seeded in white 96 well plate (Huberlab, 7.655 098) (8000/well) and treated according to assay conditions. 24” for “24”

[1] = system: C4-2 cells and enzalutamide-resistant LNCaP (L-rENZ) cells; test: Growth curves with siRNA +/- enzalutamide; details: CRPC C4-2 and L-rENZ cells; compared with EZH2 plus enzalutamide
Experimental: For growth experiments cells were treated with siRNA and two hours later with 20 uM enzalutamide. Enzalutamide was refreshed 3 days later.
Cells were seeded in a 6 well (400 000) and treated according to assay conditions over night. Cells were then seeded in Poly-L-Lysine coated 96-well plates (8000 cells/well, n=3 per condition) and WCM154 cells were seeded in a collagen-coated 96-well plates (5000 cells/well, n=3 per condition). Remaining cells were used for U6atac KD control via qRT-PCR. Cell viability was determined after 24, 48, 72, and 96 h with a Tecan Infinite M200PRO reader using the CellTiter-Glo® Luminescent Cell Viability Assay according to manufacturer's directions (Promega, G9243). Viability values were calculated as x-fold of cells transfected with siRNA for 0 h. Cell confluence (n=4 per condition) was determined using the Incucyte S3 instrument and the IncuCyte S3 2018B software (Essen Bioscience, Germany). Values were calculated as x-fold of timepoint 0 and then as fold-change in confluency as compared to siScrambled treated controls.

## COc1ccc(C[C@H]2NC[C@H](O)[C@H]2OC(C)=O)cc1 [anisomycin]
Minor spliceosome (MiS); LNCaP, C4-2, H660 cells and MSK8, MSK10, MSK16, PM154, PM1262 organoids, p38MAPK activation
  effect on minor intron splicing (luc-splicing reporter): only observed in PCa-NE cells and organoids (H660, PM154 and MSK10)

## C[C@]12CCC(=O)C[C@@H]1CC[C@@H]1[C@@H]2CC[C@]2(C)[C@@H](O)CC[C@@H]12 [dihydrotestosterone]
Minor spliceosome (MiS)
  MiS activity (luciferase reporter): rescued MiS activity to levels observed in L-AR alone

## CNC(=O)c1ccc(N2C(=S)N(c3ccc(C#N)c(C(F)(F)F)c3)C(=O)C2(C)C)cc1F [enzalutamide]
Major spliceosome
  major splicing (luc-reporter): only limited effects
Minor spliceosome (MiS); LNCaP and C4-2 cells, long term ADT/ARSi
  MiS activity (minor splicing luc-reporter): significant increase in MiS activity
[1]
  cell growth / proliferation: increased CRPC growth in resistant cells
